Experimental data published in PMC3749867, “Evolutionarily conserved structural changes in phosphatidylinositol 5-phosphate 4-kinase (PI5P4K) isoforms are responsible for differences in enzyme activity and localization” (Biochemical Journal, 2013).

What was measured:
[1] = molecular target: T1, dPIP4K (Drosophila melanogaster, UniProt A4V141); assay: radiometric lipid kinase assay, TLC; format: biochemical; conditions: PtdIns5P co-substrate, 10 mM MgCl2, pH 7.4, 30 °C; labelled compound
T1 construct: gene PIP4K; pGEX6P, E. coli BL21(DE3), GST fusion or GST cleaved by PreScission
T1 sequence (A4V141 1-404): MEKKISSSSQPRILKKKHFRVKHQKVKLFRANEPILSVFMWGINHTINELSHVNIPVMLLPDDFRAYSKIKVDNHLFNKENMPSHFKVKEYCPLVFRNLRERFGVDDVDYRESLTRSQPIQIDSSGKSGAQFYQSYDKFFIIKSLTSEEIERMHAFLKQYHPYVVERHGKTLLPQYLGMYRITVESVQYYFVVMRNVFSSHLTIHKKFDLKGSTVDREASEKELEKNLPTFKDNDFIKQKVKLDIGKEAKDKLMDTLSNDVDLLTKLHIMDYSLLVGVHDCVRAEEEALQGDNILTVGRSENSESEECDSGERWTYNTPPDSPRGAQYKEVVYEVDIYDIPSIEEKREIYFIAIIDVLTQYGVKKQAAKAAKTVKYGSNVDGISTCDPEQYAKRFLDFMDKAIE

[2] = molecular target: T2, PI5P4Kγ (Homo sapiens, UniProt Q8TBX8, E153T/N195G/E196V/D197E, form not given); conditions: read-out: Km (μM ATP); PtdIns5P co-substrate, 10 mM MgCl2, pH 7.4, 30 °C, ATP 0–150 μM
T2 construct: gene PIP4K2C
T2 sequence (Q8TBX8 2-421 E153T/N195G/E196V/D197E, form open): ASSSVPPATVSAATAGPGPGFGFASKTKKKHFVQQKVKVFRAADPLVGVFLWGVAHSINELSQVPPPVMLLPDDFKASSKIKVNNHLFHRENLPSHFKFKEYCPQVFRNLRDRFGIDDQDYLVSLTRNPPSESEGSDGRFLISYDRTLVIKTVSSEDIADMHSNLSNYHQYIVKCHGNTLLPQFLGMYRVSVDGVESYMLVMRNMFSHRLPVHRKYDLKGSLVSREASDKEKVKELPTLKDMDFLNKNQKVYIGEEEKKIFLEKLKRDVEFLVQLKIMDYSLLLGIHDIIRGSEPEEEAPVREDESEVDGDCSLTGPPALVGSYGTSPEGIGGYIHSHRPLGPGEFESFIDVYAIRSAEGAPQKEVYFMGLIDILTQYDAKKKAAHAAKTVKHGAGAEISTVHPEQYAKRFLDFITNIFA

[3] = molecular target: T3, PPK-2 (Caenorhabditis elegans, UniProt Q9BL73); assay: radiometric lipid kinase assay, TLC; format: biochemical; conditions: PtdIns5P co-substrate, 10 mM MgCl2, pH 7.4, 30 °C; labelled compound
T3 construct: pGEX6P, E. coli BL21(DE3), GST fusion or GST cleaved by PreScission
T3 sequence (Q9BL73 1-401): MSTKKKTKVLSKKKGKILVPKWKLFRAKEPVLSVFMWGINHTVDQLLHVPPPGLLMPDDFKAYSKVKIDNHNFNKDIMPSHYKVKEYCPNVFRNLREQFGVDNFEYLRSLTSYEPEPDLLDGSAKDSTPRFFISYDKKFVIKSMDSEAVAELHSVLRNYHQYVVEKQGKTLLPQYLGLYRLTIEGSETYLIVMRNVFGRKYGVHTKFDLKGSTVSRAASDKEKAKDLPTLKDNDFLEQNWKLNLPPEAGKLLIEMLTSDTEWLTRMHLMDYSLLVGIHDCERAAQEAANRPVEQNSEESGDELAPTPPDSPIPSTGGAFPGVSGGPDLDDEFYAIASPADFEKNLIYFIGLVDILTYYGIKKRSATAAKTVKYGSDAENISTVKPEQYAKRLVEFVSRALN

[4] = molecular target: T4, PI5P4Kβ (Homo sapiens, UniProt P78356); assay: radiometric lipid kinase assay, TLC; format: biochemical; conditions: read-out: Km (μM ATP); PtdIns5P co-substrate, 10 mM MgCl2, pH 7.4, 30 °C, ATP 0–150 μM
T4 construct: gene PIP4K2B; full-length cDNA in pGEX6P, E. coli BL21(DE3), GST fusion or GST cleaved by PreScission; mutant PI5P4Kβ+ His-tagged; homodimer
T4 sequence (P78356 1-416): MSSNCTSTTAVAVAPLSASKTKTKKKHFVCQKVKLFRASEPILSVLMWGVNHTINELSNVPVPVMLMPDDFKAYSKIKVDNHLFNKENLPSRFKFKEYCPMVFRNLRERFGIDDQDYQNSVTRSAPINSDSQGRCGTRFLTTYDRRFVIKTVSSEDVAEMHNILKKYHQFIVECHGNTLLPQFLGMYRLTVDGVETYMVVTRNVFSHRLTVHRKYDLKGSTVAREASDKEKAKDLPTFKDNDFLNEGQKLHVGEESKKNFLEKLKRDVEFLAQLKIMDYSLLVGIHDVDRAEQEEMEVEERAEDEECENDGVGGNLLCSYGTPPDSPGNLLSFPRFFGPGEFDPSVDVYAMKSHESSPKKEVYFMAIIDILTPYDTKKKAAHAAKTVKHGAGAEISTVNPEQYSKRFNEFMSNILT
From the text: radiometric lipid kinase assay, TLC on PI5P4Kβ

Km [2]: 3.96 µM | Km [4]: 7.58 µM
SMILES: Nc1ncnc2c1ncn2[C@@H]1O[C@H](COP(=O)(O)OP(=O)(O)OP(=O)(O)O)[C@@H](O)[C@H]1O [ATP]
radiometric lipid kinase assay, TLC [1]: We assayed the PI5P4K activity of recombinant dPIP4K from D. melanogaster | radiometric lipid kinase assay, TLC [3]: PPK-2 from C. elegans had a similar specific activity to that of PI5P4Kγ
